≈ marks a conversion by molar mass, not a printed value. Read-outs that look alike come from different tables or passages of the source.
How the values were obtained:
[1] = test system: osteoarthritis pain induced by a single injection of MIA; assay: Monosodium iodoacetate (MIA) model of osteoarthritis, joint compression thresholds; type: in vivo, Sprague-Dawley rats; conditions: for mean joint compression thresholds compared to the vehicle group: 0.3 mg intra-articular; for reversal of osteoarthritis pain compared to vehicle treated animals: single intra-articular administration of 0.3 mg
Excerpt: Osteoarthritis is the most common form of joint disease. Nearly one third of adults in the United States suffer from osteoarthritis and it is the most common cause of disability in adults in the United States. The monosodium iodoacetate (MIA) model of osteoarthritis described here produces changes in the structure and integrity of the affected cartilage that is very similar to what is seen in human osteoarthritis. Sodium iodoacetate is a metabolic inhibitor that, when injected into the joint space, selectively kills chondrocytes, the cells that form cartilage. Over a period of 2-3 weeks, the loss of cartilage produces a state highly analogous to human osteoarthritis characterized by joint instability, loss of cartilage, and decreased bone quality around the affected joint. These physiological changes are also accompanied by pain in the affected joint.
In this study, osteoarthritis was induced by a single injection of MIA (2 mg) into the synovium of the left knee, which results in increased sensitivity to pressure. For this particular study, the test compounds were given 14 days post-MIA injection to determine if the test compound can reduce the sensitivity.
• Vehicle (0.01% Tween 80 in phosphate buffer) administered intra-articularly at a dose volume of 30 μl on day 0. • Test articles DPX-1-0008, DPX-1-0011, DPX-1-0018, DPX-1-0020, DPX-1-0023, and DPX-1-0024, administered intra-articularly at a dose of 0.3 mg on day 0. • Diclofenac, administered orally at a dose of 10 mg/kg on day 8 to the vehicle group. Methods
A total of 82 male, Sprague-Dawley rats underwent MIA injection with the goal of having 70 animals available for the pharmacology treatment due to 15% failure of developing a pain state. Fourteen days after MIA injection, animals met the inclusion criteria were assigned to one of seven groups (vehicle, test article DPX-1-0008, DPX-1-0011, DPX-1-0018, DPX-1-0020, DPX-1-0023, and DPX-1-0024) and received the assigned treatment. Joint compression thresholds were assessed prior to MIA injection, prior to dosing with control/test articles, and 1, 2, 4, and 7 days post-dosing. Diclofenac served as the positive control for the study. On day 8, animals in the vehicle group received diclofenac (10 mg/kg, PO) and joint compression were assessed prior to, 1 and 2 hours after dosing for all the animals. All animals were euthanized on day 8 following the behavioral assessment.

[2] = Stability in PBS pH 7.4 at 37° C.; type: physicochemical; conditions: pH 7.4, PBS pH 7.4, 37° C.
Experimental: (§1) The stability of the prodrugs was determined in PBS, 80% human SF, 80% human plasma and 80% rat serum at 37° C. 10, 20 or 50 μL of prodrug solution in MeOH was added to 1.0 mL 80% rat serum, 2.5 mL 80% SF or human plasma or 10.0 mL PBS, respectively to give a final prodrug concentration corresponding to the solubility at pH 7.4 at 37° C. Samples were withdrawn at appropriate intervals depending on the rate of degradation. The samples from the biological medias were added to MeCN (1:2 (v:v)) vortexed and centrifuged (5 min, 10000 RPM) and the supernatant analyzed by HPLC. The 700 μL PBS samples were added to 100 μL PBS and mixed before analysis by HPLC. First a pilot study was performed with n=1 to find the appropriate sampling times and thereafter an experiment with n=3. The stability was determined from the decrease in the area of prodrug.

[3] = Stability in 80% (v/v) human plasma at 37° C.; type: in vitro ADME; conditions: 80% plasma
Experimental: as §1

[4] = Solubility in 67 mM phosphate buffer pH 7.4 and in hydrochloride solutions at 37° C.; type: physicochemical; conditions: for solubility thermodynamic: 37 °C, thermodynamic from solid, read-out: S
Experimental: The determination of the solubility of a prodrug at different pH values of interest according to the present invention is carried by adding excess solid prodrug to a container containing a buffer solution with well-defined pH. The mixture is rotated at constant temperature until an equilibrium between solid prodrug and prodrug in solution has established (that is until the prodrug concentration in the supernatant remains constant). At each measurement the pH of the supernatant is controlled and, if needed, adjusted to the desired pH. In a similar manner the solubility of a prodrug in a tissue fluid including the synovial fluid can be determined. The latter procedure comprises a simple way of testing if the solubility at the selected lower pH is indeed at least 100 times higher than the corresponding solubility in the physiological fluid it is injected into. […] For instance, a decrease in pH from pH 7.4 to 2.0 will result in a 1000-fold increase in the solubility of a base with a pKa value of 5, whereas the solubility will increase by a factor of about 9618 for a base with a pKa value of 6. These predicted alterations in pH dependent solubilities can be calculated from the expression: St=S0*(1+10^pKa-pH) where St is the total solubility at a given pH and S0 is the solubility of the neutral form of the prodrug.
A surplus of prodrug was added to either PBS pH 7.4 or H2O. 0.1 M HCl was added to the H2O to decrease pH to around 3-4. The mixtures were rotated at 37° C. and a sample was withdrawn after approximately 24 and 48 hours or later. The withdrawn sample was filtered through a 0.45 μm Millex®-HV (Millipore, Japan) low protein binding filter (the first 0.5 mL discarded) and a known volume of the sample was diluted. The pH 7.4 samples were diluted with PBS and the acidic samples with mobile phase A (section 2.5). A standard dissolved in PBS was made for the pH 7.4 samples and a standard dissolved in mobile phase A for the acidic samples. The PBS standards used for the standard curves were treated like the samples to avoid false results caused by adsorption. The standard curves were made to cover the concentration interval of the samples after dilution.
From the observed relatively stable concentration of dissolved prodrugs measured in the suspensions after 8-9 day up to 23 days, the solubilities of the prodrugs (Sprodrug) were determined. In this time interval, the rate of appearance of parent drug was determined and an apparent pseudo-zero-order rate constant (k0) was obtained. By assuming that the dissolution rates were much faster than the conversion of the prodrugs to the parent drug, pseudo first-order rate constants (khyd) for cleavage of the prodrugs were calculated according to: […]

[5] = Stability in 80% (v/v) human SF at 37° C.; type: in vitro ADME; conditions: 80% (v/v) human SF (synovial fluid), 80% SF batch 210513, 37° C.
Experimental: as §1

[6] = Stability in 80% (v/v) rat serum at 37° C.; type: in vitro ADME; conditions: pH 7.4, 80% rat serum
Experimental: as §1

[7] = pKa-value using a GLpKa meter; type: physicochemical; conditions: 25° C.
[8] = hydrochloride solution pH 4.35, 37° C., n = 6

SMILES | mean joint compression thresholds compared to the vehicle group ([1]; 8 days post-dosing) | reversal of osteoarthritis pain compared to vehicle treated animals [1] | half-life at 2.7 μg/ml ([2]; read-out: T1/2 (days)) | half-life at 2.7 μg/ml ([2]; read-out: T1/2 (min)) | half-life at 2.7 μg/ml [3] | S (mM) ([4]; 67 mM phosphate buffer pH 7.4, 37° C., n = 6) | solubility thermodynamic ([4]; 67 mM phosphate buffer, pH 7.4, aqueous buffer, 67 mM phosphate buffer pH 7.4, 37° C., n = 6) | S (mM) [4, 8] | S (μg/ml) [4, 8] | solubility thermodynamic ([4]; hydrochloride solution, pH 4.35, aqueous buffer, hydrochloride solution pH 4.35, 37° C., n = 6) | decrease of solubility from pH 4.35 to pH 7.4 ([4]; pH 4.35 vs pH 7.4) | half-life at 2.7 μg/ml [5] | mean joint compression thresholds compared to the vehicle group ([1]; 1 day post-dosing) | half-life at 2.7 μg/ml [6] | pKa [7] | mean joint compression thresholds compared to baseline values on day 8 ([1]; 10 mg/kg oral, 1 and 2 hours post-dosing)
O=C(Cc1ccccc1Nc1c(Cl)cccc1Cl)OCCCn1ccnc1 [DPX-1-0018] | significantly increased | significantly reversed |  |  |  |  |  |  |  |  |  |  |  |  |  | 
Cc1ncn(CCOC(=O)Cc2ccccc2Nc2c(Cl)cccc2Cl)c1C [DPX-1-0023] |  | significantly reversed | 0.75 days | 0.752 ± 0.114 days | 5.1 ± 0.5 min | 0.0064 ± 0.0005 mM | ~2.7 µg/mL (≈ 0.00645 mM) | 7.2 ± 0.1 mM | 3019 µg/mL | 3020 ± 62 µg/mL (≈ 7.22 mM) | 1118 fold | 39.8 ± 2.8 min | significantly increased | 6.1 ± 0.4 min | 7.92 | 
O=C(O)Cc1ccccc1Nc1c(Cl)cccc1Cl [diclofenac] |  |  |  |  |  |  |  |  |  |  |  |  |  |  |  | significantly increased
